Assays:
[1] = tested on: CD19+CD69+ cells (activated B cells); test: B cell activation in splenocytes by flow cytometry; assay type: in vivo, mouse; settings: 120 mg/kg by gavage daily; week 34; EGCG-treated vs disease mice
Method: Female NZB/W F1 mice were purchased from the Animal Center of the National Taiwan University (Taipei, Taiwan, ROC) and, at 12 weeks of age, were divided into two groups, one of which was given normal saline and served as the disease control, while the other was given 120 mg/kg body weight of EGCG (Ryss Lab, Inc., CA, USA) (this dose is a slight modification of those used in previous in vivo studies) by gavage daily till sacrificed at 34-weeks-old. 8-Week-old NZB/W F1 female mice (prior to onset of autoantibody production) were used as normal controls. Urine samples were collected in metabolic cages every 2 weeks and urine protein levels were measured, and serum samples were used to measure serum levels of blood urea nitrogen (BUN) and creatinine (Cr) as described previously (Ka, S. M. et al. Decoy receptor 3 ameliorates an autoimmune crescentic glomerulonephritis model in mice. J Am Soc Nephrol 18:2473-2485; 2007). All animal experiments were performed upon the ethical approval of the Institutional Animal Care and Use Committee of the National Defense Medical Center, Taiwan and according to the ethical rules in the NIH Guide for the Care and Use of Laboratory Animals. […]

[2] = tested on: IL-18; test: Serum IL-18 ELISA; assay type: in vivo, mouse; settings: 120 mg/kg by gavage daily; week 34; vs disease control mice
Method: (§1) Female NZB/W F1 mice were purchased from the Animal Center of the National Taiwan University (Taipei, Taiwan, ROC) and, at 12 weeks of age, were divided into two groups, one of which was given normal saline and served as the disease control, while the other was given 120 mg/kg body weight of EGCG (Ryss Lab, Inc., CA, USA) (this dose is a slight modification of those used in previous in vivo studies) by gavage daily till sacrificed at 34-weeks-old. 8-Week-old NZB/W F1 female mice (prior to onset of autoantibody production) were used as normal controls. Urine samples were collected in metabolic cages every 2 weeks and urine protein levels were measured, and serum samples were used to measure serum levels of blood urea nitrogen (BUN) and creatinine (Cr) as described previously (Ka, S. M. et al. Decoy receptor 3 ameliorates an autoimmune crescentic glomerulonephritis model in mice. J Am Soc Nephrol 18:2473-2485; 2007). All animal experiments were performed upon the ethical approval of the Institutional Animal Care and Use Committee of the National Defense Medical Center, Taiwan and according to the ethical rules in the NIH Guide for the Care and Use of Laboratory Animals. Serum levels of IL-1β and IL-18 were measured using commercial ELISA kits (BD Biosciences) according to the manufacturer's instructions.

[3] = tested on: CD4+CD25+ Treg cells; test: Treg cell functional assay (3H-thymidine proliferation, cells from treated mice); assay type: cell-based, mouse
[4] = tested on: NLRP3; test: Western blot of NLRP3 in kidney; assay type: in vivo, mouse; settings: 120 mg/kg by gavage daily; week 34; increase seen in disease control
Method: Female NZB/W F1 mice were purchased from the Animal Center of the National Taiwan University (Taipei, Taiwan, ROC) and, at 12 weeks of age, were divided into two groups, one of which was given normal saline and served as the disease control, while the other was given 120 mg/kg body weight of EGCG (Ryss Lab, Inc., CA, USA) (this dose is a slight modification of those used in previous in vivo studies) by gavage daily till sacrificed at 34-weeks-old. 8-Week-old NZB/W F1 female mice (prior to onset of autoantibody production) were used as normal controls. Urine samples were collected in metabolic cages every 2 weeks and urine protein levels were measured, and serum samples were used to measure serum levels of blood urea nitrogen (BUN) and creatinine (Cr) as described previously (Ka, S. M. et al. Decoy receptor 3 ameliorates an autoimmune crescentic glomerulonephritis model in mice. J Am Soc Nephrol 18:2473-2485; 2007). All animal experiments were performed upon the ethical approval of the Institutional Animal Care and Use Committee of the National Defense Medical Center, Taiwan and according to the ethical rules in the NIH Guide for the Care and Use of Laboratory Animals. […] Antibodies to histone H3 (Cell Signaling) or β-actin (Santa Cruz) were used as internal controls for the nuclear and cytosolic target proteins, respectively.

[5] = tested on: IL-1β; test: Serum IL-1β ELISA; assay type: in vivo, mouse; settings: 120 mg/kg by gavage daily; week 34; vs disease control mice
Method: as §1

[6] = tested on: superoxide anion; test: Kidney in-situ ROS production by dihydroethidium (DHE) labeling; assay type: in vivo, mouse; settings: 120 mg/kg by gavage daily, week 34
Method: Female NZB/W F1 mice were purchased from the Animal Center of the National Taiwan University (Taipei, Taiwan, ROC) and, at 12 weeks of age, were divided into two groups, one of which was given normal saline and served as the disease control, while the other was given 120 mg/kg body weight of EGCG (Ryss Lab, Inc., CA, USA) (this dose is a slight modification of those used in previous in vivo studies) by gavage daily till sacrificed at 34-weeks-old. 8-Week-old NZB/W F1 female mice (prior to onset of autoantibody production) were used as normal controls. Urine samples were collected in metabolic cages every 2 weeks and urine protein levels were measured, and serum samples were used to measure serum levels of blood urea nitrogen (BUN) and creatinine (Cr) as described previously (Ka, S. M. et al. Decoy receptor 3 ameliorates an autoimmune crescentic glomerulonephritis model in mice. J Am Soc Nephrol 18:2473-2485; 2007). […] Kidney in situ superoxide anion production was determined by dihydroethidium (DHE) labeling. Fluorescent images were quantified by counting the percentage of positive nuclei in the total nuclei per kidney cross-section. Superoxide anion levels in serum and kidney tissues were measured as described previously and the results expressed as reactive luminescence units (RLU) per 15 min per milligram dry weight (i.e., RLU/15 min/mg dry weight).

Substance: Epigallocatechin-3-gallate [EGCG]
- percentage of CD19+CD69+ cells (activated B cells) in CD19+ splenocytes [1]: no significant difference
- serum levels of IL-18 [2]: significantly lower
- proliferation of Treg cells incubated alone following anti-CD3 antibody stimulation ([3]; Treg cells from EGCG-treated mice): did not proliferate
- inhibition of responder T cell proliferation by added Treg cells (Treg cell activity) ([3]; Treg cells from EGCG-treated mice vs Treg cells from disease control mice, titration): much greater
- proliferation of responder T cells incubated alone following anti-CD3 antibody stimulation ([3]; responder T cells from EGCG-treated vs disease control mice): proliferated, but to an equal extent
- levels of NLRP3 protein in kidney tissues [4]: inhibited
- serum levels of IL-1β [5]: significantly lower
- DHE fluorescence (in-situ ROS production in renal tissue) [6]: very low
